# Results: ChEMBL document CHEMBL5096235, “In Silico Exploration and Biological Evaluation of Bispecific Peptides Derived from Anti-HER2 Antibodies and Peptide-Camptothecin Conjugates for HER2-Positive Breast Cancer” (J Med Chem, 2022)
# Activity calls are given as the source filed them. The calls are words filed in the database; no cut-off is given here. Residues, ends and D or L forms follow the SMILES beside them. *: point of attachment. X1 = CC[C@@]1(OC(=O)CCCCCN2CC(=O)C(*)C2=O)C(=O)OCc2c1cc1n(c2=O)Cc2cc3ccccc3nc2-1; X2 = CC[C@@]1(OC(=O)CCS*)C(=O)OCc2c1cc1n(c2=O)Cc2cc3ccccc3nc2-1
# Columns and labels:
# MDA-MB-231 = assay: Cytotoxicity against HER-negative human MDA-MB-231 cells assessed as inhibition of cell growth incubated for 48 hrs by MTT assay; format: functional, cell-based; details: MDA-MB-231, 48 h
# SK-BR-3 = assay: Cytotoxicity against HER-positive human SK-BR-3 cells assessed as inhibition of cell growth incubated for 48 hrs by MTT assay; format: functional, cell-based; details: SK-BR-3, 48 h
# SK-OV-3 = assay: Cytotoxicity against HER-positive human SK-OV-3 cells assessed as inhibition of cell growth incubated for 48 hrs by MTT assay; format: functional, cell-based; details: SK-OV-3, 48 h
# [1] = Cytotoxicity against human MCF-10A cells assessed as inhibition of cell growth incubated for 48 hrs by MTT assay; format: toxicity, cell-based
# NCI-N87 = assay: Cytotoxicity against HER-positive human NCI-N87 cells assessed as inhibition of cell growth incubated for 48 hrs by MTT assay; format: functional, cell-based; details: NCI-N87, 48 h
# [2] = molecular target: T1, Receptor tyrosine-protein kinase erbB-2 (Homo sapiens, UniProt P04626); assay: Binding affinity to HER2 in HER-positive human SK-BR-3 cells assessed as increase in fluorescence intensity at 25 uM by Hoechst 33342 staining based confocal microscopic analysis; format: cell-based
# T1 sequence (P04626 whole entry): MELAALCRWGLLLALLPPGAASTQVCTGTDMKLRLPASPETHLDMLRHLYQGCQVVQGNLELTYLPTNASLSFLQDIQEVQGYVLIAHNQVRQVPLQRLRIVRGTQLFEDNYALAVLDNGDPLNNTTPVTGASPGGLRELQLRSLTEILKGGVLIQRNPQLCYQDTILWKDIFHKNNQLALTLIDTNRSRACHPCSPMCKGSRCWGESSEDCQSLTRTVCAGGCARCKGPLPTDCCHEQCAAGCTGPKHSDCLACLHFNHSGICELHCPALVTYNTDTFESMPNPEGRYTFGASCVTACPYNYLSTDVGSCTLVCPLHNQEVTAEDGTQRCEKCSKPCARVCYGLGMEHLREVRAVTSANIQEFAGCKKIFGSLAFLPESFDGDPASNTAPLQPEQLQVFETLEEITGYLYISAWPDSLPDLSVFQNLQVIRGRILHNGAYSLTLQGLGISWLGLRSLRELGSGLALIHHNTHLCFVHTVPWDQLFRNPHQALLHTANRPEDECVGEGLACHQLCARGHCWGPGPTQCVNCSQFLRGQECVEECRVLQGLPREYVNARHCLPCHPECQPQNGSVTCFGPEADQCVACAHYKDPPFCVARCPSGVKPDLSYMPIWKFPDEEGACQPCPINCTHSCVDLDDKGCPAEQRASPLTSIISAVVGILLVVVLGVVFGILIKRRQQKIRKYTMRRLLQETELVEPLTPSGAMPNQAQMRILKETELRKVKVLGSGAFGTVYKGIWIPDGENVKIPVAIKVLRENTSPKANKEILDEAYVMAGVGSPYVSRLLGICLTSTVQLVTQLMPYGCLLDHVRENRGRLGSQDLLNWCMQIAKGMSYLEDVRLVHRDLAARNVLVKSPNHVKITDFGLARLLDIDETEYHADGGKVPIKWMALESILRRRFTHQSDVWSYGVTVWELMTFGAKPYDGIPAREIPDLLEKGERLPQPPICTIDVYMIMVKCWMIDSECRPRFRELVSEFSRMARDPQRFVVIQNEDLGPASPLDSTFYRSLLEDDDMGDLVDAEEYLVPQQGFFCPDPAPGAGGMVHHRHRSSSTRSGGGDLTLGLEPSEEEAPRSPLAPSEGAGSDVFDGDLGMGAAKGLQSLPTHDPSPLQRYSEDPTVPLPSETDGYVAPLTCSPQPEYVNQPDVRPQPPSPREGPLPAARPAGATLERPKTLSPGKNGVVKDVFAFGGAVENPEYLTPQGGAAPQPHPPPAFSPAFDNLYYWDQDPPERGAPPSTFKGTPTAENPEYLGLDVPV
# [3] = molecular target: T1, Receptor tyrosine-protein kinase erbB-2; assay: Binding affinity to recombinant HER2 (unknown origin) assessed as dissociation constant by SPR analysis
# [4] = Metabolic stability in Sprague-Dawley rat plasma assessed as half life incubated for 120 mins by LC-MS/MS analysis; format: ADME, cell-free
# [5] = Metabolic stability in Sprague-Dawley rat plasma assessed as drug degradation incubated for 120 mins by LC-MS/MS analysis; format: ADME, cell-free; details: 2 h
Kd [3],SMILES,IC50 (MDA-MB-231),IC50 (SK-BR-3),IC50 (SK-OV-3),IC50 at 48 h [1],IC50 (NCI-N87),further results
0.385 µM,CC[C@H](C)[C@H](NC(=O)[C@H](CCCNC(=N)N)NC(=O)CNC(=O)[C@H](CS)NC(=O)CNC(=O)[C@H](CS)NC(=O)CNC(=O)[C@H](CCCCN)NC(=O)[C@H](Cc1ccccc1)NC(=O)[C@H](CCCNC(=N)N)NC(=O)[C@H](CCC(N)=O)NC(=O)[C@H](CC(N)=O)NC(=O)[C@H](Cc1ccc(O)cc1)NC(=O)[C@H](Cc1c[nH]c2ccccc12)NC(=O)[C@H](CO)NC(=O)[C@H](CCCNC(=N)N)NC(=O)CNC(=O)[C@H](Cc1c[nH]c2ccccc12)NC(=O)[C@H](CC(N)=O)NC(=O)[C@@H]1CCCN1C(=O)[C@@H](N)CC(N)=O)C(=O)N[C@@H](CCCCN)C(=O)N1CCC[C@H]1C(=O)N[C@@H](CCCNC(=N)N)C(=O)N[C@@H](CCCCN)C(=O)NCC(=O)N[C@@H](Cc1ccc(O)cc1)C(=O)N[C@H](C(=O)N[C@@H](CCCNC(=N)N)C(=O)O)[C@@H](C)O (H-NPNWGRSWYNQRFKGCGCGRIKPRKGYTR-OH),,,,,,half-life [4]: 15 min; Stability [5]: Unstable
8.9 µM,N=C(N)NCCC[C@H](NC(=O)[C@H](CCC(N)=O)NC(=O)[C@H](CC(N)=O)NC(=O)[C@H](Cc1ccc(O)cc1)NC(=O)[C@H](Cc1c[nH]c2ccccc12)NC(=O)[C@H](CO)NC(=O)[C@H](Cc1c[nH]c2ccccc12)NC(=O)CNC(=O)[C@H](Cc1c[nH]c2ccccc12)NC(=O)[C@H](CC(N)=O)NC(=O)[C@@H]1CCCN1C(=O)[C@@H](N)CC(N)=O)C(=O)N[C@@H](Cc1ccccc1)C(=O)N[C@@H](CCCCN)C(=O)O (H-NPNWGWSWYNQRFK-OH),,,,,,
7.6 µM,CC[C@H](C)[C@H](NC(=O)[C@@H](N)CCCNC(=N)N)C(=O)N[C@@H](CCCCN)C(=O)N1CCC[C@H]1C(=O)N[C@@H](CCCNC(=N)N)C(=O)N[C@@H](CCCCN)C(=O)NCC(=O)N[C@@H](Cc1ccc(O)cc1)C(=O)N[C@H](C(=O)N[C@@H](CCCNC(=N)N)C(=O)O)[C@@H](C)O (H-RIKPRKGYTR-OH),,,,,,

# Further lines, the compound ahead of its results:
SMILES,Kd [3],IC50 (MDA-MB-231),IC50 (SK-BR-3),IC50 (SK-OV-3),IC50 at 48 h [1],IC50 (NCI-N87),further results
CC[C@H](C)[C@H](NC(=O)[C@@H](N)CCCNC(=N)N)C(=O)N[C@@H](CCCCN)C(=O)N1CCC[C@H]1C(=O)N[C@@H](CCCNC(=N)N)C(=O)N[C@@H](CCCCN)C(=O)NCC(=O)N[C@@H](Cc1ccc(O)cc1)C(=O)N[C@H](C(=O)N[C@@H](CCCNC(=N)N)C(=O)NCC(=O)N[C@@H](CSSCCC(=O)O[C@]1(CC)C(=O)OCc2c1cc1n(c2=O)Cc2cc3ccccc3nc2-1)C(=O)NCC(=O)N[C@@H](CSSCCC(=O)O[C@]1(CC)C(=O)OCc2c1cc1n(c2=O)Cc2cc3ccccc3nc2-1)C(=O)NC(=O)C[C@H](NC(=O)CN)C(=O)N1CCC[C@H]1C(=O)N[C@@H](CC(N)=O)C(=O)N[C@@H](Cc1c[nH]c2ccccc12)C(=O)NCC(=O)N[C@@H](CCCNC(=N)N)C(=O)N[C@@H](CO)C(=O)N[C@@H](Cc1c[nH]c2ccccc12)C(=O)N[C@@H](Cc1ccc(O)cc1)C(=O)N[C@@H](CC(N)=O)C(=O)N[C@@H](CCC(N)=O)C(=O)N[C@@H](CCCNC(=N)N)C(=O)N[C@@H](Cc1ccccc1)C(=O)N[C@@H](CCCCN)C(N)=O)[C@@H](C)O,,11.5 µM,1.49 µM,4.12 µM,18.2 µM,7.37 µM,
CC[C@H](C)[C@H](NC(=O)[C@@H](N)CCCNC(=N)N)C(=O)N[C@@H](CCCCN)C(=O)N1CCC[C@H]1C(=O)N[C@@H](CCCNC(=N)N)C(=O)N[C@@H](CCCCN)C(=O)NCC(=O)N[C@@H](Cc1ccc(O)cc1)C(=O)N[C@H](C(=O)N[C@@H](CCCNC(=N)N)C(=O)NCC(=O)N[C@@H](CSC1C(=O)CN(CCCCCC(=O)O[C@]2(CC)C(=O)OCc3c2cc2n(c3=O)Cc3cc4ccccc4nc3-2)C1=O)C(=O)NCC(=O)N[C@@H](CSC1C(=O)CN(CCCCCC(=O)O[C@]2(CC)C(=O)OCc3c2cc2n(c3=O)Cc3cc4ccccc4nc3-2)C1=O)C(=O)NC(=O)C[C@H](NC(=O)CN)C(=O)N1CCC[C@H]1C(=O)N[C@@H](CC(N)=O)C(=O)N[C@@H](Cc1c[nH]c2ccccc12)C(=O)NCC(=O)N[C@@H](CCCNC(=N)N)C(=O)N[C@@H](CO)C(=O)N[C@@H](Cc1c[nH]c2ccccc12)C(=O)N[C@@H](Cc1ccc(O)cc1)C(=O)N[C@@H](CC(N)=O)C(=O)N[C@@H](CCC(N)=O)C(=O)N[C@@H](CCCNC(=N)N)C(=O)N[C@@H](Cc1ccccc1)C(=O)N[C@@H](CCCCN)C(N)=O)[C@@H](C)O (stereo not given in full),,28.2 µM,6.72 µM,20.4 µM,25.2 µM,10.9 µM,
CC[C@H](C)[C@H](NC(=O)[C@H](CCCNC(=N)N)NC(=O)CNC(=O)[C@H](CS)NC(=O)CNC(=O)[C@H](CCCCN)NC(=O)[C@H](Cc1ccccc1)NC(=O)[C@H](CCCNC(=N)N)NC(=O)[C@H](CCC(N)=O)NC(=O)[C@H](CC(N)=O)NC(=O)[C@H](Cc1ccc(O)cc1)NC(=O)[C@H](Cc1c[nH]c2ccccc12)NC(=O)[C@H](CO)NC(=O)[C@H](CCCNC(=N)N)NC(=O)CNC(=O)[C@H](Cc1c[nH]c2ccccc12)NC(=O)[C@H](CC(N)=O)NC(=O)[C@@H]1CCCN1C(=O)[C@H](N)CC(=O)NC(=S)Nc1ccc2c(c1)C(=O)OC21c2ccc(O)cc2Oc2cc(O)ccc21)C(=O)N[C@@H](CCCCN)C(=O)N1CCC[C@@H]1C(=O)N[C@H](CCCNC(=N)N)C(=O)N[C@H](CCCCN)C(=O)NCC(=O)N[C@H](Cc1ccc(O)cc1)C(=O)N[C@@H](C(=O)N[C@H](CCCNC(=N)N)C(N)=O)[C@H](C)O,,,,,,,Activity [2]: Active
N=C(N)NCCC[C@H](NC(=O)CNC(=O)[C@H](Cc1c[nH]c2ccccc12)NC(=O)[C@H](CC(N)=O)NC(=O)[C@@H]1CCCN1C(=O)[C@@H](N)CC(N)=O)C(=O)N[C@@H](CO)C(=O)N[C@@H](Cc1c[nH]c2ccccc12)C(=O)N[C@@H](Cc1ccc(O)cc1)C(=O)N[C@@H](CC(N)=O)C(=O)N[C@@H](CCC(N)=O)C(=O)N[C@@H](CCCNC(=N)N)C(=O)N[C@@H](Cc1ccccc1)C(=O)N[C@@H](CCCCN)C(=O)O (H-NPNWGRSWYNQRFK-OH),5.7 µM,,,,,,
N=C(N)NCCC[C@H](NC(=O)[C@H](CCC(N)=O)NC(=O)[C@H](CC(N)=O)NC(=O)[C@H](Cc1ccc(O)cc1)NC(=O)[C@H](CCCNC(=N)N)NC(=O)[C@H](CO)NC(=O)[C@H](Cc1c[nH]c2ccccc12)NC(=O)CNC(=O)[C@H](Cc1c[nH]c2ccccc12)NC(=O)[C@H](CC(N)=O)NC(=O)[C@@H]1CCCN1C(=O)[C@@H](N)CC(N)=O)C(=O)N[C@@H](Cc1ccccc1)C(=O)N[C@@H](CCCCN)C(=O)O (H-NPNWGWSRYNQRFK-OH),9.89 µM,,,,,,
N=C(N)NCCC[C@H](NC(=O)[C@H](CCC(N)=O)NC(=O)[C@H](CC(N)=O)NC(=O)[C@H](Cc1ccc(O)cc1)NC(=O)[C@H](Cc1c[nH]c2ccccc12)NC(=O)[C@H](CO)NC(=O)[C@H](Cc1ccc(O)cc1)NC(=O)CNC(=O)[C@H](Cc1c[nH]c2ccccc12)NC(=O)[C@H](CC(N)=O)NC(=O)[C@@H]1CCCN1C(=O)[C@@H](N)CC(N)=O)C(=O)N[C@@H](Cc1ccccc1)C(=O)N[C@H](C=O)CCCCN (H-NPNWGYSWYNQRFK-aldehyde),14.3 µM,,,,,,
N=C(N)NCCC[C@H](NC(=O)CNC(=O)[C@H](Cc1c[nH]c2ccccc12)NC(=O)[C@@H]1CCCN1C(=O)[C@@H]1CCCN1C(=O)[C@@H](N)CC(N)=O)C(=O)N[C@@H](CO)C(=O)N[C@@H](CCCNC(=N)N)C(=O)N[C@@H](Cc1ccc(O)cc1)C(=O)N[C@@H](CC(N)=O)C(=O)N[C@@H](CCC(N)=O)C(=O)N[C@@H](CCCNC(=N)N)C(=O)N[C@@H](Cc1ccccc1)C(=O)N[C@@H](CCCCN)C(=O)O (H-NPPWGRSRYNQRFK-OH),12.3 µM,,,,,,
CC[C@H](C)[C@H](NC(=O)[C@@H](N)CCCNC(=N)N)C(=O)N[C@@H](CCCCN)C(=O)N1CCC[C@H]1C(=O)N[C@@H](CCCNC(=N)N)C(=O)N[C@@H](CCCCN)C(=O)NCC(=O)N[C@@H](Cc1ccc(O)cc1)C(=O)N[C@H](C(=O)N[C@@H](CCCNC(=N)N)C(=O)NCC(=O)N[C@@H](CSC1C(=O)CN(CCCCCC(=O)O[C@]2(CC)C(=O)OCc3c2cc2n(c3=O)Cc3cc4ccccc4nc3-2)C1=O)C(=O)NCC(=O)N[C@@H](CC(N)=O)C(=O)N1CCC[C@H]1C(=O)N[C@@H](CC(N)=O)C(=O)N[C@@H](Cc1c[nH]c2ccccc12)C(=O)NCC(=O)N[C@@H](CCCNC(=N)N)C(=O)N[C@@H](CO)C(=O)N[C@@H](Cc1c[nH]c2ccccc12)C(=O)N[C@@H](Cc1ccc(O)cc1)C(=O)N[C@@H](CC(N)=O)C(=O)N[C@@H](CCC(N)=O)C(=O)N[C@@H](CCCNC(=N)N)C(=O)N[C@@H](Cc1ccccc1)C(=O)N[C@@H](CCCCN)C(N)=O)[C@@H](C)O (stereo not given in full) (H-RIKPRKGYTRGC(X1)GNPNWGRSWYNQRFK-NH2),,23.1 µM,25.4 µM,24.4 µM,35.2 µM,15.3 µM,
CC[C@H](C)[C@H](NC(=O)[C@@H](N)CCCNC(=N)N)C(=O)N[C@@H](CCCCN)C(=O)N1CCC[C@H]1C(=O)N[C@@H](CCCNC(=N)N)C(=O)N[C@@H](CCCCN)C(=O)NCC(=O)N[C@@H](Cc1ccc(O)cc1)C(=O)N[C@H](C(=O)N[C@@H](CCCNC(=N)N)C(=O)NCC(=O)N[C@@H](CSSCCC(=O)O[C@]1(CC)C(=O)OCc2c1cc1n(c2=O)Cc2cc3ccccc3nc2-1)C(=O)NCC(=O)N[C@@H](CC(N)=O)C(=O)N1CCC[C@H]1C(=O)N[C@@H](CC(N)=O)C(=O)N[C@@H](Cc1c[nH]c2ccccc12)C(=O)NCC(=O)N[C@@H](CCCNC(=N)N)C(=O)N[C@@H](CO)C(=O)N[C@@H](Cc1c[nH]c2ccccc12)C(=O)N[C@@H](Cc1ccc(O)cc1)C(=O)N[C@@H](CC(N)=O)C(=O)N[C@@H](CCC(N)=O)C(=O)N[C@@H](CCCNC(=N)N)C(=O)N[C@@H](Cc1ccccc1)C(=O)N[C@@H](CCCCN)C(N)=O)[C@@H](C)O (H-RIKPRKGYTRGC(X2)GNPNWGRSWYNQRFK-NH2),,10.9 µM,6.42 µM,6.25 µM,20.4 µM,5.76 µM,
